The text below walks through data of patent publication US20240083857A1, “2-Methyl-Quinazolines” (Bayer Pharma Aktiengesellschaft, priority 2017, published 2024).

Structures are written as SMILES.

Assay [1] deals with human SOS1 (nucleotide exchange of K-Ras^G12C) (Homo sapiens, UniProt Q07889). Put plainly: Biochemical assay 2: K-Ras^G12C activation assay by hSOS1 at high GTP concentration (HTRF). Particulars: high GTP; for IC50: read-out: Assay 2 (KRAS-Activation by SOS high GTP) activity expressed as IC50; for inhibition at 20 µM: read-out: Assay 2 (KRAS-Activation by SOS high GTP) activity expressed as % inhibition at 20 μM.

Assay [2] deals with K-Ras^G12C : hSOS1 interaction (Homo sapiens, UniProt Q07889). Description: Biochemical assay 1: K-Ras^G12C interaction assay with hSOS1 (HTRF). The assay is classed as binding. Particulars: for IC50: read-out: Assay 1 (KRAS-SOS Interaction) activity expressed as IC50; for inhibition at 20 µM: read-out: Assay 1 (KRAS-SOS Interaction) activity expressed as % inhibition at 20 μM. In general terms: Time-resolved FRET reads energy transfer from a long-lived donor to a nearby acceptor.

The target in assay [3] is human SOS1 (loading of human K-Ras^G12C-GDP with fluorescent GTP-analog) (Homo sapiens, UniProt Q07889). Description: Biochemical assay 3: K-Ras^G12C activation assay by hSOS1 (HTRF). The settings on record: no GTP; for IC50: read-out: Assay 3 (KRAS-Activation by SOS no GTP) activity expressed as IC50; for inhibition at 20 µM: read-out: Assay 3 (KRAS-Activation by SOS no GTP) activity expressed as % inhibition at 20 μM.

Usually IC50 stands for the midpoint of a concentration-inhibition curve. For the compound `COc1cc2nc(C)nc(N[C@@H](C)c3ccc(-c4ccc5c(c4)CCO5)s3)c2cc1OC` (racemic) [Example 174, N-{1-[5-(2,3-dihydro-1-benzofuran-5-yl)thiophen-2-yl]ethyl}-6,7-dimethoxy-2-methylquinazolin-4-amine], the results for the IC50 in assay [1], in assay [2] and in assay [3] were 9280 nM, 6920 nM and 18300 nM, respectively.
`CCCOc1ccccc1-c1cccc([C@@H](C)Nc2nc(C)nc3cc(OC)c(OC)cc23)c1` [Example 102, 6,7-dimethoxy-2-methyl-N-[(1R)-1-(2′-propoxybiphenyl-3-yl)ethyl]quinazolin-4-amine]: the IC50 in assay [1] was determined as 3560 nM; in assay [2] it was 6380 nM; in assay [3], 11500 nM.
The term inhibition denotes the relative decrease from the control value, in per cent. Consider `CCCOc1ccc(Cl)cc1-c1ccc([C@H](C)Nc2nc(C)nc3cc(OC)c(OC)cc23)s1` (stereo in doubt) [Example 144, N-{1-[5-(5-chloro-2-propoxyphenyl)thiophen-2-yl]ethyl}-6,7-dimethoxy-2-methylquinazolin-4-amine], for which the figures for the inhibition at 20 µM in assay [1], in assay [2] and in assay [3] were 12%, 30% and 19%, respectively.
`COCCNC(=O)CNCc1ccccc1-c1ccc(C(C)Nc2nc(C)nc3cc(OC)c(OC)cc23)s1` (stereo not drawn) [Example 283, 2-[2-(5-{1-[(6,7-dimethoxy-2-methylquinazolin-4-yl)amino]ethyl}thiophen-2-yl)benzyl]-N-(2-methoxyethyl)glycinamide]: the IC50 came out at 371 nM in assay [1], 418 nM in assay [2] and 344 nM in assay [3].
Take `COc1cc2nc(C)nc(N[C@H](C)c3cc4cccc(OC)c4o3)c2cc1OC` (stereo in doubt) [Example 33, 6,7-dimethoxy-N-[1-(7-methoxy-1-benzofuran-2-yl)ethyl]-2-methylquinazolin-4-amine]: the inhibition at 20 µM in assay [1] was 24%; in assay [2], 53%; in assay [3] it was 9%.
As to `COc1cc2nc(C)nc(N[C@@H](C)c3ccc(-c4csc5ccccc45)s3)c2cc1OC` (racemic) [Example 154, N-{1-[5-(1-benzothiophen-3-yl)thiophen-2-yl]ethyl}-6,7-dimethoxy-2-methylquinazolin-4-amine], the IC50 worked out at 8780 nM in assay [1], 7820 nM in assay [2] and 12900 nM in assay [3].
As to `COc1cc2nc(C)nc(N[C@@H](C)c3ccc(-c4ccoc4)s3)c2cc1OC` (racemic) [Example 153, N-{1-[5-(furan-3-yl)thiophen-2-yl]ethyl}-6,7-dimethoxy-2-methylquinazolin-4-amine], the IC50 is 2730 nM in assay [1], 2350 nM in assay [2] and 4100 nM in assay [3].
For `CCOCc1ccccc1-c1ccc([C@H](C)Nc2nc(C)nc3cc(OC)c(OC)cc23)s1` (racemic) [Example 133, N-[1-{5-[2-(ethoxymethyl)phenyl]thiophen-2-yl}ethyl]-6,7-dimethoxy-2-methylquinazolin-4-amine], in that order: 4030 nM, 4300 nM and 5670 nM.
As to `COc1cc2nc(C)nc(N[C@@H](C)c3ccc(/C=C/C4CC4)s3)c2cc1OC` (racemic) [Example 132, N-[1-{5-[(E)-2-cyclopropylethenyl]thiophen-2-yl}ethyl]-6,7-dimethoxy-2-methylquinazolin-4-amine], the IC50 in assay [1] came to 8050 nM; in assay [2] it was 6580 nM. Moreover, the inhibition at 20 µM in assay [3] amounted to 46%.
As to `COc1cc2nc(C)nc(N[C@H](C)c3cccc(-c4ccccc4NS(C)(=O)=O)c3)c2cc1OC` [Example 121, N-(3′-{(1R)-1-[(6,7-dimethoxy-2-methylquinazolin-4-yl)amino]ethyl}biphenyl-2-yl)methanesulfonamide], the results for the IC50 in assay [1], in assay [2] and in assay [3] were 679 nM, 452 nM and 791 nM, respectively.
For the compound `COc1cc2nc(C)nc(N[C@H](C)c3cccc(-c4ccc(CO)s4)c3)c2cc1OC` [Example 107, [5-(3-{(1R)-1-[(6,7-dimethoxy-2-methylquinazolin-4-yl)amino]ethyl}phenyl)thiophen-2-yl]methanol], the IC50 is 467 nM in assay [1], 319 nM in assay [2] and 438 nM in assay [3].
For `COc1cc2nc(C)nc(N[C@H](C)c3cccc(-c4cccc(S(N)(=O)=O)c4)c3)c2cc1OC` [Example 61, 3′-{(1R)-1-[(6,7-dimethoxy-2-methylquinazolin-4-yl)amino]ethyl}biphenyl-3-sulfonamide], in that order: 717 nM, 374 nM and 895 nM.
In the case of `COc1cc2nc(C)nc(N[C@H](C)c3cccc(-c4csc5ccccc45)c3)c2cc1OC` [Example 87, N-{(1R)-1-[3-(1-benzothiophen-3-yl)phenyl]ethyl}-6,7-dimethoxy-2-methylquinazolin-4-amine], the IC50 in assay [1] was determined as 3460 nM; in assay [2] it was 4420 nM; in assay [3], 7420 nM.
For the compound `COc1cc2nc(C)nc(N[C@H](C)c3cccc(/C=C/Cc4ccccc4)c3)c2cc1OC` [Example 78, 6,7-dimethoxy-2-methyl-N-[(1R)-1-{3-[(1E)-3-phenylprop-1-en-1-yl]phenyl}ethyl]quinazolin-4-amine], the inhibition at 20 µM amounted to 45% in assay [1] and 31% in assay [3]. In assay [2], the IC50 came to 8550 nM.
In the case of `COc1cc2nc(C)nc(N[C@@H](C)c3ccc(-c4ccc(C(C)(C)C#N)cc4)s3)c2cc1OC` (stereo in doubt) [Example 137, 2-[4-(5-{1-[(6,7-dimethoxy-2-methylquinazolin-4-yl)amino]ethyl}thiophen-2-yl)phenyl]-2-methylpropanenitrile], the inhibition at 20 µM in assay [1] was 36%; in assay [2] it was 48%; in assay [3] it was 32%.
As to `COc1cc2nc(C)nc(N[C@@H](C)c3ccc(-c4ccc5[nH]ccc5c4)s3)c2cc1OC` (racemic) [Example 152, N-{1-[5-(1H-indol-5-yl)thiophen-2-yl]ethyl}-6,7-dimethoxy-2-methylquinazolin-4-amine], the IC50 in assay [1] was determined as 7330 nM; in assay [2], 5480 nM; in assay [3], 11100 nM.
For `COc1cc2nc(C)nc(N[C@H](C)c3cccc(-c4ccccc4S(C)(=O)=O)c3)c2cc1OC` [Example 120, 6,7-dimethoxy-2-methyl-N-{(1R)-1-[2′-(methylsulfonyl)biphenyl-3-yl]ethyl}quinazolin-4-amine], the IC50 stood at 2020 nM in assay [1], 1590 nM in assay [2] and 3530 nM in assay [3].
Regarding `COc1cc2nc(C)nc(NC(C)c3ccc(-c4ccccc4)o3)c2cc1OC` (single isomer, unassigned) [Example 224, 6,7-dimethoxy-2-methyl-N-[1-(5-phenylfuran-2-yl)ethyl]quinazolin-4-amine, enantiomer], the results for the IC50 in assay [1], in assay [2] and in assay [3] were 2550 nM, 3600 nM and 9370 nM, respectively.
For the compound `COc1cc2nc(C)nc(NC(C)c3ccc(-c4ccccc4CNCC(=O)N(C)C)s3)c2cc1OC` (stereo not drawn) [Example 280, 2-[2-(5-{1-[(6,7-dimethoxy-2-methylquinazolin-4-yl)amino]ethyl}thiophen-2-yl)benzyl]-N,N-dimethylglycinamide], the values for the IC50 in assay [1], in assay [2] and in assay [3] were 120 nM, 148 nM and 135 nM, respectively.
In the case of `C/C=C/c1cccc([C@@H](C)Nc2nc(C)nc3cc(OC)c(OC)cc23)c1` [Example 116, 6,7-dimethoxy-2-methyl-N-[(1R)-1-{3-[(1E)-prop-1-en-1-yl]phenyl}ethyl]quinazolin-4-amine], the half-maximal inhibitory concentration (IC50) in assay [1] was determined as 1150 nM; in assay [2] it was 1080 nM; in assay [3], 1720 nM.
Take `COc1cccc(-c2cccc([C@@H](C)Nc3nc(C)nc4cc(OC)c(OC)cc34)c2)c1` [Example 99, 6,7-dimethoxy-N-[(1R)-1-(3′-methoxybiphenyl-3-yl)ethyl]-2-methylquinazolin-4-amine]: the results for the IC50 in assay [1], in assay [2] and in assay [3] were 1420 nM, 2180 nM and 2630 nM, respectively.
For `COc1cc2nc(C)nc(N[C@H](C)c3cccc(-c4ccc(CNS(C)(=O)=O)cc4)c3)c2cc1OC` [Example 72, N-[(3′-{(1R)-1-[(6,7-dimethoxy-2-methylquinazolin-4-yl)amino]ethyl}biphenyl-4-yl)methyl]methanesulfonamide], in that order: 666 nM, 737 nM and 882 nM.
For `COc1cc2nc(C)nc(N[C@@H](C)c3ccc(-c4c(C)noc4C)s3)c2cc1OC` (racemic) [Example 147, N-{1-[5-(3,5-dimethyl-1,2-oxazol-4-yl)thiophen-2-yl]ethyl}-6,7-dimethoxy-2-methylquinazolin-4-amine], the IC50 worked out at 767 nM in assay [1], 397 nM in assay [2] and 658 nM in assay [3].
For `COc1cc2nc(C)nc(N[C@@H](C)c3ccc(-c4cc(N)ccc4C)s3)c2cc1OC` (racemic) [Example 146, N-{1-[5-(5-amino-2-methylphenyl)thiophen-2-yl]ethyl}-6,7-dimethoxy-2-methylquinazolin-4-amine], in that order: 1500 nM, 911 nM and 1480 nM.
For `COc1cc2nc(C)nc(N[C@@H](C)c3ccc(-c4ccc5cc[nH]c5c4)s3)c2cc1OC` (racemic) [Example 54, N-{1-[5-(1H-indol-6-yl)thiophen-2-yl]ethyl}-6,7-dimethoxy-2-methylquinazolin-4-amine], in that order: 4130 nM, 4190 nM and 4070 nM.
